Experiments:
Test in all cases: relative viability (nuclei count vs DMSO), 5 days (fraction); higher = more cells survive
NCI-H1944 = tested on: NCI-H1944
Outline: (§1)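 Relative viability was taken as the ratio of nuclei in treated wells to nuclei in vehicle wells. Lung cancer cell lines in 1536-well plates received compounds by pin tool one day after seeding, either one drug alone or a fixed anchor-drug dose plus five library-drug doses (not always all listed) in √10 steps. Nuclei were counted on 4× images after 5 days of treatment, and values are medians of duplicate plates.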

LCLC-97TM1 = tested on: LCLC-97TM1
Outline: as §1

NCI-H1793 = tested on: NCI-H1793
Outline: as §1

UMC-11 = tested on: UMC-11
Outline: as §1

HCC-366 = tested on: HCC-366
Outline: as §1

EPLC-272H = tested on: EPLC-272H
Outline: as §1

COR-L 105 = tested on: COR-L 105
Outline: as §1

NCI-H1915 = tested on: NCI-H1915
Outline: as §1

NCI-H1755 = tested on: NCI-H1755
Outline: as §1

LC-2-ad = tested on: LC-2-ad
Outline: as §1

NCI-H2085 = tested on: NCI-H2085
Outline: as §1

NCI-H460 = tested on: NCI-H460
Outline: as §1

HCC-78 = tested on: HCC-78
Outline: as §1

HOP-62 = tested on: HOP-62
Outline: as §1

NCI-H2170 = tested on: NCI-H2170
Outline: as §1

NCI-H358 = tested on: NCI-H358
Outline: as §1

LXF-289 = tested on: LXF-289
Outline: as §1

LU99A = tested on: LU99A
Outline: as §1

SK-LU-1 = tested on: SK-LU-1
Outline: as §1

A-427 = tested on: A-427
Outline: as §1

NCI-H1792 = tested on: NCI-H1792
Outline: as §1

NCI-H1975 = tested on: NCI-H1975
Outline: as §1

Question: How did the relative viability (NCI-H1944; first compound 0.005 µM) turn out when CC1(C)CCC(c2ccc(Cl)cc2)=C(CN2CCN(c3ccc(C(=O)NS(=O)(=O)c4ccc(N[C@H](CCN5CCOCC5)CSc5ccccc5)c(S(=O)(=O)C(F)(F)F)c4)cc3)CC2)C1 [Navitoclax] + Cc1nc(NC(=O)N2CCC[C@H]2C(N)=O)sc1-c1ccnc(C(C)(C)C(F)(F)F)c1 [Alpelisib] (partner 2 µM) was run?
Answer: 0.832

Question: And the relative viability (NCI-H1944; first compound 0.01581 µM)?
Answer: 0.863

Question: And the relative viability (NCI-H1944; first compound 0.05 µM)?
Answer: 0.786

Question: What about the relative viability (NCI-H1944; first compound 0.1581 µM) of the same molecule?
Answer: 0.836

Question: And the relative viability (NCI-H1944; first compound 0.5 µM)?
Answer: 0.82

Question: What about the relative viability (LCLC-97TM1; first compound 0.005 µM) of the same molecule?
Answer: 0.335

Question: What about the relative viability (LCLC-97TM1; first compound 0.01581 µM) of the same molecule?
Answer: 0.328

Question: What about the relative viability (LCLC-97TM1; first compound 0.05 µM) of the same molecule?
Answer: 0.241

Question: And the relative viability (LCLC-97TM1; first compound 0.1581 µM)?
Answer: 0.228

Question: And the relative viability (LCLC-97TM1; first compound 0.5 µM)?
Answer: 0.243

Question: What about the relative viability (NCI-H1793; first compound 0.005 µM) of the same molecule?
Answer: 0.772

Question: And the relative viability (NCI-H1793; first compound 0.01581 µM)?
Answer: 0.799

Question: What about the relative viability (NCI-H1793; first compound 0.05 µM) of the same molecule?
Answer: 0.574

Question: And the relative viability (NCI-H1793; first compound 0.1581 µM)?
Answer: 0.858

Question: And the relative viability (NCI-H1793; first compound 0.5 µM)?
Answer: 0.609

Question: And the relative viability (UMC-11; first compound 0.005 µM)?
Answer: 0.961

Question: What about the relative viability (UMC-11; first compound 0.01581 µM) of the same molecule?
Answer: 1.02

Question: And the relative viability (UMC-11; first compound 0.1581 µM)?
Answer: 0.979

Question: What about the relative viability (UMC-11; first compound 0.5 µM) of the same molecule?
Answer: 0.623

Question: And the relative viability (HCC-366; first compound 0.005 µM)?
Answer: 0.391

Question: And the relative viability (HCC-366; first compound 0.01581 µM)?
Answer: 0.588

Question: What about the relative viability (HCC-366; first compound 0.05 µM) of the same molecule?
Answer: 0.132

Question: What about the relative viability (HCC-366; first compound 0.1581 µM) of the same molecule?
Answer: 0.338

Question: What about the relative viability (HCC-366; first compound 0.5 µM) of the same molecule?
Answer: 0.361

Question: What about the relative viability (EPLC-272H; first compound 0.005 µM) of the same molecule?
Answer: 0.877

Question: What about the relative viability (EPLC-272H; first compound 0.1581 µM) of the same molecule?
Answer: 0.933

Question: What about the relative viability (EPLC-272H; first compound 0.5 µM) of the same molecule?
Answer: 0.821

Question: And the relative viability (COR-L 105; first compound 0.005 µM)?
Answer: 0.878

Question: What about the relative viability (COR-L 105; first compound 0.01581 µM) of the same molecule?
Answer: 1.22

Question: And the relative viability (COR-L 105; first compound 0.05 µM)?
Answer: 0.989

Question: What about the relative viability (COR-L 105; first compound 0.1581 µM) of the same molecule?
Answer: 1.07

Question: And the relative viability (COR-L 105; first compound 0.5 µM)?
Answer: 0.978

Question: And the relative viability (NCI-H1915; first compound 0.005 µM)?
Answer: 1.08

Question: What about the relative viability (NCI-H1915; first compound 0.01581 µM) of the same molecule?
Answer: 1.06

Question: And the relative viability (NCI-H1915; first compound 0.05 µM)?
Answer: 1.01

Question: And the relative viability (NCI-H1915; first compound 0.1581 µM)?
Answer: 0.94

Question: And the relative viability (NCI-H1915; first compound 0.5 µM)?
Answer: 1

Question: And the relative viability (NCI-H1755; first compound 0.005 µM)?
Answer: 0.903

Question: What about the relative viability (NCI-H1755; first compound 0.01581 µM) of the same molecule?
Answer: 1

Question: And the relative viability (NCI-H1755; first compound 0.05 µM)?
Answer: 0.906

Question: And the relative viability (NCI-H1755; first compound 0.1581 µM)?
Answer: 0.904

Question: What about the relative viability (NCI-H1755; first compound 0.5 µM) of the same molecule?
Answer: 0.947

Question: And the relative viability (LC-2-ad; first compound 0.005 µM)?
Answer: 0.972

Question: What about the relative viability (LC-2-ad; first compound 0.01581 µM) of the same molecule?
Answer: 0.948

Question: What about the relative viability (LC-2-ad; first compound 0.05 µM) of the same molecule?
Answer: 0.901

Question: What about the relative viability (LC-2-ad; first compound 0.1581 µM) of the same molecule?
Answer: 0.946

Question: What about the relative viability (LC-2-ad; first compound 0.5 µM) of the same molecule?
Answer: 0.904

Question: And the relative viability (NCI-H2085; first compound 0.005 µM)?
Answer: 0.944

Question: What about the relative viability (NCI-H2085; first compound 0.01581 µM) of the same molecule?
Answer: 0.996

Question: And the relative viability (NCI-H2085; first compound 0.05 µM)?
Answer: 0.881

Question: What about the relative viability (NCI-H2085; first compound 0.1581 µM) of the same molecule?
Answer: 0.957

Question: What about the relative viability (NCI-H2085; first compound 0.5 µM) of the same molecule?
Answer: 0.925

Question: And the relative viability (NCI-H460; first compound 0.005 µM)?
Answer: 0.5

Question: And the relative viability (NCI-H460; first compound 0.01581 µM)?
Answer: 0.533

Question: And the relative viability (NCI-H460; first compound 0.05 µM)?
Answer: 0.639

Question: And the relative viability (NCI-H460; first compound 0.1581 µM)?
Answer: 0.511

Question: And the relative viability (NCI-H460; first compound 0.5 µM)?
Answer: 0.46

Question: What about the relative viability (HCC-78; first compound 0.005 µM) of the same molecule?
Answer: 0.309

Question: And the relative viability (HCC-78; first compound 0.01581 µM)?
Answer: 0.352

Question: What about the relative viability (HCC-78; first compound 0.1581 µM) of the same molecule?
Answer: 0.341

Question: And the relative viability (HCC-78; first compound 0.5 µM)?
Answer: 0.339

Question: What about the relative viability (HOP-62; first compound 0.005 µM) of the same molecule?
Answer: 0.781

Question: What about the relative viability (HOP-62; first compound 0.01581 µM) of the same molecule?
Answer: 1.06

Question: And the relative viability (HOP-62; first compound 0.05 µM)?
Answer: 0.869

Question: And the relative viability (HOP-62; first compound 0.1581 µM)?
Answer: 0.871

Question: What about the relative viability (HOP-62; first compound 0.5 µM) of the same molecule?
Answer: 0.785

Question: And the relative viability (NCI-H2170; first compound 0.005 µM)?
Answer: 0.785

Question: What about the relative viability (NCI-H2170; first compound 0.01581 µM) of the same molecule?
Answer: 0.872

Question: What about the relative viability (NCI-H2170; first compound 0.05 µM) of the same molecule?
Answer: 0.927

Question: What about the relative viability (NCI-H2170; first compound 0.1581 µM) of the same molecule?
Answer: 0.8

Question: What about the relative viability (NCI-H2170; first compound 0.5 µM) of the same molecule?
Answer: 0.583

Question: And the relative viability (NCI-H358; first compound 0.005 µM)?
Answer: 0.817

Question: And the relative viability (NCI-H358; first compound 0.01581 µM)?
Answer: 0.955

Question: And the relative viability (NCI-H358; first compound 0.05 µM)?
Answer: 1.01

Question: What about the relative viability (NCI-H358; first compound 0.1581 µM) of the same molecule?
Answer: 1.04

Question: And the relative viability (NCI-H358; first compound 0.5 µM)?
Answer: 0.856

Question: And the relative viability (LXF-289; first compound 0.005 µM)?
Answer: 1.02

Question: And the relative viability (LXF-289; first compound 0.01581 µM)?
Answer: 1.03

Question: And the relative viability (LXF-289; first compound 0.05 µM)?
Answer: 0.921

Question: And the relative viability (LXF-289; first compound 0.1581 µM)?
Answer: 1.02

Question: What about the relative viability (LXF-289; first compound 0.5 µM) of the same molecule?
Answer: 1.08

Question: What about the relative viability (LU99A; first compound 0.005 µM) of the same molecule?
Answer: 0.5

Question: What about the relative viability (LU99A; first compound 0.01581 µM) of the same molecule?
Answer: 0.573

Question: What about the relative viability (LU99A; first compound 0.05 µM) of the same molecule?
Answer: 0.406

Question: And the relative viability (LU99A; first compound 0.1581 µM)?
Answer: 0.526

Question: And the relative viability (LU99A; first compound 0.5 µM)?
Answer: 0.473

Question: And the relative viability (SK-LU-1; first compound 0.005 µM)?
Answer: 0.979

Question: What about the relative viability (SK-LU-1; first compound 0.01581 µM) of the same molecule?
Answer: 1.12

Question: What about the relative viability (SK-LU-1; first compound 0.05 µM) of the same molecule?
Answer: 1.23

Question: And the relative viability (SK-LU-1; first compound 0.1581 µM)?
Answer: 0.906

Question: And the relative viability (SK-LU-1; first compound 0.5 µM)?
Answer: 0.867

Question: And the relative viability (A-427; first compound 0.005 µM)?
Answer: 1.01

Question: What about the relative viability (A-427; first compound 0.01581 µM) of the same molecule?
Answer: 1.06

Question: And the relative viability (A-427; first compound 0.05 µM)?
Answer: 0.908

Question: And the relative viability (A-427; first compound 0.1581 µM)?
Answer: 1.14

Question: What about the relative viability (A-427; first compound 0.5 µM) of the same molecule?
Answer: 1.04

Question: What about the relative viability (NCI-H1792; first compound 0.005 µM) of the same molecule?
Answer: 0.735

Question: And the relative viability (NCI-H1792; first compound 0.01581 µM)?
Answer: 0.878

Question: And the relative viability (NCI-H1792; first compound 0.05 µM)?
Answer: 0.534

Question: And the relative viability (NCI-H1792; first compound 0.1581 µM)?
Answer: 0.657

Question: What about the relative viability (NCI-H1792; first compound 0.5 µM) of the same molecule?
Answer: 0.692

Question: And the relative viability (NCI-H1975; first compound 0.005 µM)?
Answer: 0.639

Question: And the relative viability (NCI-H1975; first compound 0.01581 µM)?
Answer: 0.732

Question: And the relative viability (NCI-H1975; first compound 0.05 µM)?
Answer: 0.752

Question: What about the relative viability (NCI-H1975; first compound 0.1581 µM) of the same molecule?
Answer: 0.653

Question: What about the relative viability (NCI-H1975; first compound 0.5 µM) of the same molecule?
Answer: 0.578

— the supplement of paper PMC10307832
